Test system: mold mite
Test: Toxicity of plant essential oils fogged into food cartons against mold mites
Type: in vivo
Conditions: for control of the mites (pest mortality): about 1 g test substance fogged into half pint milk carton, about 100 mites per carton, cartons opened at 24 hour intervals, from day one; for control of the mites (mortality): repeated experiment, cartons not opened until day ten
Text: Half pint milk cartons were used as sample food containers. The composition of the carton is multilayer paper, plastic and foil. The last two inner layers are foil and plastic; the food inside the carton is in contact with the plastic. Utilizing a ULV sprayer, the plant essential oils were fogged into the container. Approximately one gram of liquid test substance (i.e. plant essential oil) was deposited into the container. The desired amount of food and approximately 100 mites per carton were then added to the container and the carton was sealed. The materials tested included 2-phenyl ethyl alcohol, 2-phenyl ethyl propionate, trans-anethole, and benzyl alcohol. The cartons were opened at 24 hour intervals, a new carton each interval, to observe for pest mortality and the results were recorded.
The experiment was repeated, but the cartons were not opened until day ten.

Row | Compound | control of the mites (pest mortality) | control of the mites (mortality)
1 | OCCc1ccccc1 [2-phenyl ethyl alcohol] | good control | best results of mortality
2 | CCC(=O)OCCc1ccccc1 [2-phenyl ethyl propionate] | good control | best results of mortality
